Measurements as given in patent US7517902B2, “Substituted indazoles, compositions containing the same, and the preparation and use thereof” (Aventis Pharma S.A., priority 2004, dated 2009).
Where a name gives a salt, the structure may show the parent alone.

Legend:
[1] = target: T1, CDK4/cyclin D1 kinase complex (Homo sapiens, UniProt P11802); assay: CDK4/cyclinD1 Flashplate assay in 96-well format; assay type: biochemical; conditions: read-out: IC 50 CDK4
T1 construct: HA (Hemagglutinin tag) (C); made in house; host or cells: Sf9 insect cells (baculovirus co-infection)
T1 sequence (P11802 whole entry): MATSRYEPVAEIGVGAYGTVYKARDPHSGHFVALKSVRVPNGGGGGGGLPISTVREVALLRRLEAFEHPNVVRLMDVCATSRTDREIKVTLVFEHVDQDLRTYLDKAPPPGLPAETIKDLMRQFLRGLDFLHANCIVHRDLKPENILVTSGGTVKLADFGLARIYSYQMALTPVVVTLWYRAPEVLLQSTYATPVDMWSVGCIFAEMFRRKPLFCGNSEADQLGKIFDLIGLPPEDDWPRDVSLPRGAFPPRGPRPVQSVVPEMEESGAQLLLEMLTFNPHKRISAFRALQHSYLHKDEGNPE
T1 sequence (P24385 whole entry partner): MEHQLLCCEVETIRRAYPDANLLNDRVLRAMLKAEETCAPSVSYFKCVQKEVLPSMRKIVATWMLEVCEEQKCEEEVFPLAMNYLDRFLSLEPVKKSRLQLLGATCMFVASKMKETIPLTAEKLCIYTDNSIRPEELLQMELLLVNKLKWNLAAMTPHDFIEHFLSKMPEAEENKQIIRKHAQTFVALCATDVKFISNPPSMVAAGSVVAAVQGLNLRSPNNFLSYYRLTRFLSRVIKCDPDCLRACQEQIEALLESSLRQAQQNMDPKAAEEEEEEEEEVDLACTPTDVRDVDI
Description: Purification of the CDK4-HA/cyclin D1-(His)6 complex by IMAC (Immobilized Metal Affinity Chromatography):
Two recombinant baculoviruses carrying the human sequences coding respectively for CDK4-HA (C-terminal fusion with the Hemagglutinin tag) and for cyclin D1-(His)6 are used to co-infect Sf9 insect cells. Sixty hours after the beginning of co-infection, the cells are harvested by centrifugation and then frozen at −20° C. until their use. After thawing in buffer A (HEPES 200 mM pH 7.0, NaCl 50 mM, MgCl2 2 mM, imidazole 25 mM, TCEP 1 mM, glycerol 10% (w/v), NaF 1 mM, Na3VO4 1 mM), stirring at 4° C. for 1 h, and centrifugation, the complex present in the lysis supernatant is purified by affinity chromatography on nickel (IMAC) and stored at −80° C.
CDK4/cyclinD1 Flashplate Assay in 96-Well Format.
An assay in 96-well “Flashplate” (scintillation plate) plates coated with streptavidin is used to evaluate the inhibition of the CDK4/cyclin D1 kinase complex by the products of the invention. To perform this test, the biotinylated peptide substrate, a fragment of the pRb protein, (biotinyl-[…]-amide), is dissolved at a concentration of 2 mM in kinase buffer (HEPES/NaOH 50 mM, NaCl 1 mM, MgCl2 5 mM, pH=7.5) to form a stock solution, which is stored at −20° C. in the form of 110 μl aliquots. On the day of the experiment, an aliquot of this solution is thawed and diluted in kinase buffer containing 1 mM of dithiothreitol, added at the time of use, so as to give a final peptide concentration of 2.571 μM. seventy μl of this solution are deposited in each well of the Flashplate plate, to give a final substrate concentration of 1.8 μM during the enzymatic reaction, which is performed in a final volume of 100 μl (cf. below). Intermediate dilutions of inhibitors (products of the invention) at various concentrations are prepared in DMSO from 10 mM stock solutions in separate tubes. In this way dilutions at 1000 μM, 333.3 μM, 111.1 μM, 37.03 μM, 12.35 μM, 4.11 μM and 1.37 μM are produced. One μl of each of these solutions (or 1 μl of DMSO for the controls) is subsequently transferred into the wells of the assay plate. To each well there is subsequently added 19 μl of a solution of a mixture of adenosine triphosphate (ATP) and ATPγ^33P in the kinase buffer at a concentration of 5.26 μM of total ATP and 78.9 μCi/ml of ^33P. The enzymatic reaction is triggered by adding 10 μl per well of a solution of CDK4/cyclin D1 complex at 250 nM in the kinase buffer, containing 1 mM of dithiothreitol (or 10 μl of kinase buffer containing 1 mM of dithiothreitol for the reaction blanks). At the end of the various additions, the final volume in each well is 100 μl, the final substrate concentration is 1.8 μM, the final inhibitor concentrations are 10 μM, 3.33 μM, 1.11 μM, 0.37 μM, 0.123 μM, 0.041 μM and 0.014 μM (depending on the concentration of the intermediate dilution), the final ATP concentration is 1 μM, the final amount of ^33P is 1.5 μCi/well, and the final concentration of CDK4/cyclin D1 complex is 25 nM.
After all of the reagents have been added, the assay plate is incubated at 30° C. with orbital stirring at 650 rpm. Following incubation, the plate is washed three times with 300 μl per well of PBS buffer (phosphate buffered saline, pH=7.4 with neither calcium nor magnesium, reference 10010-015, Gibco BRL). The incorporation of ^33P into the substrate peptide is measured by scintillation counting using a Packard Topcount.NXT instrument. The inhibitory activity of the products of the invention is evaluated by determining the concentration of inhibitor resulting in a 50% reduction in the enzymatic activity (IC50).

human Tie2 = target: T2, human Tie2 (Homo sapiens, UniProt Q02763); assay: Tie2 assay of PLC phosphorylation (FlashPlate); assay type: biochemical; conditions: read-out: IC 50 TIE2
T2 construct: amino acids of the intracellular domain 776-1124; made in house
T2 sequence (Q02763 776-1124): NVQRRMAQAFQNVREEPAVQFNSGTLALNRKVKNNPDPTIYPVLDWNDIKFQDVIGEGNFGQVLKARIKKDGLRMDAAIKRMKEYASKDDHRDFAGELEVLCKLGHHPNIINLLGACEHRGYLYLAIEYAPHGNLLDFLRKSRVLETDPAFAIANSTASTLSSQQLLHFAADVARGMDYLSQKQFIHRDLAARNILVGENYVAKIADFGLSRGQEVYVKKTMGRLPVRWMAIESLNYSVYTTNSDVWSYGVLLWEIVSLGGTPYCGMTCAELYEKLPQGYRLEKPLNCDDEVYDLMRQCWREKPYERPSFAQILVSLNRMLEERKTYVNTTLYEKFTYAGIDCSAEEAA

Row | IC50 [1] [µM] | IC50 (human Tie2) [µM] | melting point [°C] | Structure (SMILES)
1 | 0.132 | 0.015 |  | Nc1n[nH]c2cc(-c3ccc(NS(=O)(=O)c4cccc(Cl)c4Cl)cc3)ccc12 [Example 2, 1-[4-(3-Amino-1H-indazol-6-yl)phenyl]-2,3-dichlorobenzenesulfonamide hydrochloride]
2 | 0.145 | 0.004 | 196 | O=C(Nc1n[nH]c2cc(-c3ccc(NS(=O)(=O)c4cccc(Cl)c4Cl)cc3)ccc12)c1ccsc1 [Example 3, 3-Thiophenecarboxylic acid {6-[4-(2,3dichlorobenzenesulfonylamino)phenyl]-1H-indazol-3-yl}amide]
3 | 0.055 | 0.002 |  | O=C(Nc1n[nH]c2c(F)c(-c3ccc(NS(=O)(=O)c4cccc(Cl)c4Cl)cc3)ccc12)c1ccsc1 [Example 5, 3-Thiophenecarboxylic acid {6-[4-(2,3-dichlorobenzenesulfonylamino)-7-fluorophenyl]-1H-indazol-3-yl}amide]
4 | 0.117 | 0.01 |  | Nc1n[nH]c2c(F)c(-c3ccc(NS(=O)(=O)c4cccc(Cl)c4Cl)cc3)ccc12 [Example 8, 1-[4-(3-Amino-1H-indazol-6-yl)-7-fluorophenyl]-2,3-dichlorobenzenesulfonamide hydrochloride]
